Data set [1] has as its system cancer cell lines. Nature of the data set: Live cell PWS of chromatin folding/heterogeneity (D, Σ). The format is cell-based. The note with it: for capacity to reduce chromatin folding (D↓, Σ↓): PWS on live cells; for regulation of chromatin topology / heterogeneity: live cells, LC-PWS, within minutes of treatment where stated; for chromatin heterogeneity Σ: within 30 min, p<0.01; for structural alteration of chromatin folding: five cell line models (A2780, M248, MDA-MB-231, MES-SA, MX2). The procedure:
Test compounds were screened for CPT activity using live cell PWS imaging. Control and 30-60 minute CPT-treated cells were imaged with live cell PWS to determine their effect on nuclear nanoscale heterogeneity (See FIG. 11A for exemplary tested compounds). […]

Data set [2] has as its system pancreatic ductal carcinoma PDX model. Nature of the data set: In vivo validation of CPT on patient derived xenographs. The note with it: single agent treatment. The procedure:
The cell lines were treated with standard (IC50) doses of commonly used chemotherapy drugs (5-FU, Paclitaxel, Oxaliplatin, Docetaxel, Gemcitabine, FOLFIRI). […] Experiments were conducted during development of embodiments herein to test CPT in vivo on patient derived xenographs (PDX) of pancreatic ductal carcinoma (FIG. 15i).

For data set [3], the system named is CHO cells. In words: Mitochondrial membrane potential by TMRE flow cytometry. Type of data set: cell-based, Chinese Ovarian Hamster. The note with it: 10 μM CCCP. As for the experimental part: (§1) HeLa and CHO cells were grown and prepared for live cell imaging as previously described. Cell measurements for a single field of view were sequentially obtained for 3 minutes prior to treatment with CCCP. HeLa (n=31 from 6 independent experiments) and CHO (n=159 from 5 independent experiments) cells were treated with 10 μM for 15 minutes and imaged before and after treatment. Mock treated cells were incubated with 0.01% DMSO to account for the effect of DMSO solvent on the cells. […] Mitochondrial membrane potential ΔΨm was measured by flow cytometry (BD LSRII at the Northwestern Flow Cytometry Core) for tetramethylrhodamine (TMRE, purchased from Life Technologies, Carlsbad Calif.) stained cells. In brief, cells were trypsinized and immediately stained with 50 nM of TMRE for 30 minutes. Cells were washed twice with PBS after staining and suspended in 1 ml of PBS. CCCP treated cells were treated for 15 minutes to replicate conditions during live cell live cell PWS imaging. At least 20,000 cells were selected by forward and side scattering channels for each group, with a double elimination of doublets from the final analysis. Mean TMRE intensity from each replicate population was used for representative comparison between treated and untreated groups.

Data set [4] has as its system CHO cells. Nature of the data set: Live cell PWS, mean nuclear Σ (chromatin nano-architecture). The format is cell-based, Chinese Ovarian Hamster. The procedure:
(§2) Prior to imaging, media within petri dishes was exchanged with fresh, RPMI-1640 Media (lacking phenol red pH indicator, purchased from Life Technologies) supplemented with 10% FBS (Sigma Aldrich, St. Louis Mo.). For DNA fragmentation experiments, live cell PWS images were acquired at room temperature (22° C.) and in trace CO2 (open air) conditions for cells subsequently stained with Hoechst 33342. During acquisition of time series data (UV and Controls, metabolic perturbation), cells were maintained at physiological conditions for the duration of the experiment. For imaging, a reference scattering spectra was obtained from an open surface of the substrate coverslip immersed in media prior to any cellular imaging to normalize the intensity of light scattered for each wavelength at each pixel. Σ is defined as the spectral standard deviation of our measured reflectance intensity normalized to this reference scattering spectra from the substrate-media interface. […] For Hoechst induced DNA damage experiments, significance was determined using Student's T-test with unpaired, unequal variance on nuclear Δ(Σ) between the conditions indicated in the experiment in both Mathematica v.10 and Microsoft Excel (Microsoft, Redmond, Wash.) with n=146 for Hoechst stained HeLa cells from 11 replicates and n=87 for Hoechst stained CHO cells from 5 replicates. […]

Data set [5] relates to HeLa cells. In words: Mitochondrial membrane potential by TMRE flow cytometry. Type of data set: cell-based. The note with it: 10 μM CCCP. The procedure: as §1
For orientation: Flow cytometry measures light scatter and fluorescence of single cells or particles in a stream.

For data set [6], the system named is HeLa cells. Nature of the data set: Live cell PWS, mean nuclear Σ (chromatin nano-architecture). Type of data set: cell-based. As for the experimental part:
as §2

Data set [7] has as its system A2780.m248. In words: Cell survival by surface coverage (% inhibition / cell death). Type of data set: cell-based. The note with it: Ovarian A2780.m248; after 48 hours, surface coverage relative to control. The procedure:
These compounds were tested in combination with the chemotherapy drug paclitaxel.

The subject of data set [8] is A2780.m248 ovarian cancer cells. In words: Live cell PWS screen for CPT activity (mean nuclear sigma). The note with it: 30-60 minute treated cells. Type of data set: cell-based.
In data set [9] the test system is A2780. Nature of the data set: Cell survival by surface coverage (% inhibition / cell death). The note with it: Ovarian A2780; after 48 hours, surface coverage relative to control.
The subject of data set [10] is cancer cell lines. Nature of the data set: Single-cell sequencing of transcriptional heterogeneity. The format is cell-based. An excerpt:
Although partial regulation of folding is achieved through molecular-specific chromatin remodelers (Refs. 12c, 40c; incorporated by reference in their entireties) (CTCF, SWI/SNF, histone modifications), a more efficient global regulation is governed by physico-chemical mechanisms (FIG. 16). A cardiovascular drug digoxin provides one such example.

The test system of data set [11] is MES-SA MX2. In words: Cell survival by surface coverage (% inhibition). Type of data set: cell-based. The note with it: Sarcoma MES-SA MX2.
Data set [12] deals with MES-SA. In words: Cell survival by surface coverage (% inhibition). The format is cell-based. The note with it: Sarcoma MES-SA.
Data set [13] has as its system HeLa cells. In words: γ-H2A.X immunofluorescence (DNA fragmentation). The format is cell-based. The note with it: Hoechst-stained cells after UV excitation versus mock-stained. The procedure: Co-registration of live cell PWS imaging and DNA strand damage using phospho-histone H2A.X was performed by immunofluorescent staining on three independent experiments. Cells were fixed for 20 min with 4% paraformaldehyde at room temperature, washed twice with phosphate buffered saline and a permeabilization/blocking step was performed with 0.1% Triton X-100 in 1% bovine serum albumin (Sigma Aldrich, St. Louis Mo.) for 20 min. Cells were again washed twice with PBS and then incubated with AlexaFluor 488 conjugated to anti-γH2A.X (serine 139 residue) rabbit monoclonal antibody (Cell Signaling, Beverly, […].) for 30 minutes. Following incubation with the antibody, cells were imaged using the FITC-EGFP filter on the live cell PWS microscope.

Entries after “also recorded” stand apart in the source; their conditions may differ.

Broadly, the % Inhibition is the change of the read-out against control, counted positive when it falls.

In the case of `Cn1cc(C2=C(c3coc4ccc(F)cc34)C(=O)NC2=O)c2cc3c(cc21)OCO3` [9-ING-41], the “capacity to reduce chromatin folding (D↓, Σ↓)” value in [1] was “reduce chromatin folding”. In data set [1] (colonic, pancreatic, ovarian, and mesothelioma lines), the “Σ / CPT strength in multiple cancer cell lines” value is “strong CPT; also recorded: decreases Σ”. Also, the tumor size entry in data set [2] is listed as “continued to expand in size”.

On to `N#CC(C#N)=NNc1cccc(Cl)c1` [CCCP, carbonyl cyanide m-chlorophenyl hydrazone], for which the “change in TMRE fluorescence” value in data set [3] was “no significant change”. The “regulation of chromatin topology / heterogeneity” value in data set [1] is listed as “potent regulators of chromatin topology; also recorded: global regulators of chromatin heterogeneity”. In addition, the “change in mean-nuclear Σ” value in data set [4] (10 μM CCCP, 15 minutes) is “no significant increase”. Besides, in data set [5], the “decrease in TMRE fluorescence” value was determined as 10 fold and the “ΔΨm as gauged by TMRE fluorescence” value is “rapidly lost ΔΨm”. In addition, in data set [6] (10 μM CCCP, 15 minutes), the “decrease in mean-nuclear Σ” value worked out at 10%.

As to `Cc1ccc(-c2cc(C(F)(F)F)nn2-c2ccc(S(N)(=O)=O)cc2)cc1` [Celecoxib], in [1], the “capacity to reduce chromatin folding (D↓, Σ↓)” value was “reduce chromatin folding”; the “regulation of chromatin topology / heterogeneity” value is “homogenization of chromatin; also recorded: potent regulators of chromatin topology; also recorded: global regulators of chromatin heterogeneity”; the “chromatin heterogeneity Σ” value is “Σ↓”. Moreover, the “% Inhibition” value in data set [7] stood at 0%. Moreover, the mean nuclear sigma entry in [8] was “decrease in mean nuclear sigma”. The “% Inhibition” value in [9] came out at 0%.

In the case of `COc1cc(/C=C/C(=O)CC(=O)/C=C/c2ccc(O)c(OC)c2)ccc1O` [Curcumin], in [1], the “capacity to reduce chromatin folding (D↓, Σ↓)” value is listed as “reduce chromatin folding”.

Consider `C[C@H]1O[C@@H](O[C@H]2[C@@H](O)C[C@H](O[C@H]3[C@@H](O)C[C@H](O[C@H]4CC[C@@]5(C)[C@H](CC[C@@H]6[C@@H]5C[C@@H](O)[C@]5(C)[C@@H](C7=CC(=O)OC7)CC[C@]65O)C4)O[C@@H]3C)O[C@@H]2C)C[C@H](O)[C@@H]1O` [Digoxin, digoxin], for which the “transcriptional divergence and heterogeneity” value in data set [10] is “lower intracellular transcriptional divergence and intercellular heterogeneity”. In data set [1], the “capacity to reduce chromatin folding (D↓, Σ↓)” value is reported as “reduce chromatin folding”; the “structural alteration of chromatin folding” value is reported as “decreases chromatin folding”; the “regulation of chromatin topology / heterogeneity” value was “homogenization of chromatin; also recorded: potent regulators of chromatin topology; also recorded: global regulators of chromatin heterogeneity”; the “chromatin heterogeneity Σ” value is “Σ↓”. In [1] (cell culture, within 30 min after application), the “chromatin D” value was “D↓”. Moreover, the mean nuclear sigma result in data set [8] is reported as “decrease in mean nuclear sigma”.

Consider `CC(=O)O[C@@]12CO[C@@H]1C[C@H](O)[C@@]1(C)C(=O)[C@H](O)C3=C(C)[C@@H](OC(=O)[C@H](O)[C@@H](NC(=O)OC(C)(C)C)c4ccccc4)C[C@@](O)([C@@H](OC(=O)c4ccccc4)[C@H]21)C3(C)C` [Docetaxel], for which the “% Inhibition” value turned out to be 79% in [11] and 65% in data set [12]. Also, the “structural alteration of chromatin folding” value in data set [1] is “increases”.

For the compound `O=C(O[C@@H]1Cc2c(O)cc(O)cc2O[C@@H]1c1cc(O)c(O)c(O)c1)c1cc(O)c(O)c(O)c1` [EGCG], in data set [1], the “capacity to reduce chromatin folding (D↓, Σ↓)” value is given as “reduce chromatin folding”.

As to `CCOc1ccc(-c2nc3ccc(-c4nc5ccc(N6CCN(C)CC6)cc5[nH]4)cc3[nH]2)cc1` [Hoechst 33342], the γ-H2A.X antibody accumulation entry in [13] was “drastic accumulation”. The “change (decrease) in mean-nuclear Σ” value in data set [4] (Hoechst-stained, after UV exposure (excitation)) is −7.1%. Besides, the “decrease in mean-nuclear Σ” value in data set [6] (Hoechst-stained, after a few seconds of UV exposure (excitation)) was 17.01%.

Take `CC(=O)Oc1ccccc1C(=O)O` [aspirin]: in [1], the “capacity to reduce chromatin folding (D↓, Σ↓)” value is recorded as “reduce chromatin folding” and the “regulation of chromatin topology / heterogeneity” value is on record as “potent regulators of chromatin topology; also recorded: global regulators of chromatin heterogeneity”.

In the case of `Nc1ccn([C@@H]2O[C@H](CO)[C@@H](O)C2(F)F)c(=O)n1` [gemcitabine], in [2], the tumor size entry is on record as “continued to expand in size”.

Regarding `CC1=C(CC(=O)O)c2cc(F)ccc2/C1=C\c1ccc([S+](C)[O-])cc1` (stereo not shown) [sulindac], the “chromatin heterogeneity Σ” value in [1] is “not”.

Take `CC(C)[C@@H]1NC(=O)[C@H](C)OC(=O)[C@@H](C(C)C)NC(=O)[C@@H](C(C)C)OC(=O)[C@H](C(C)C)NC(=O)[C@H](C)OC(=O)[C@@H](C(C)C)NC(=O)[C@@H](C(C)C)OC(=O)[C@H](C(C)C)NC(=O)[C@H](C)OC(=O)[C@@H](C(C)C)NC(=O)[C@@H](C(C)C)OC1=O` [valinomycin]: in [1], the “capacity to reduce chromatin folding (D↓, Σ↓)” value was “reduce chromatin folding” and the “regulation of chromatin topology / heterogeneity” value was “potent regulators of chromatin topology; also recorded: global regulators of chromatin heterogeneity”.

With `CCCC(CCC)C(=O)O` [valproic acid], the “chromatin heterogeneity Σ” value in data set [1] was “Σ↓”.

(Values after patent publication US20200217837A1, “CHROMATIN PROTECTIVE THERAPEUTICS AND CHROMATIN HETEROGENEITY” (Northwestern University, priority 2016, published 2020).)
